The target in one assay is Purine nucleoside phosphorylase (Bos taurus) (UniProt P55859). Kind of assay: Inhibition of calf spleen PNP (purine nucleoside phosphorylase) in 50 mM phosphate.
Purine nucleoside phosphorylase (Bos taurus), sequence (P55859 whole entry, looked up): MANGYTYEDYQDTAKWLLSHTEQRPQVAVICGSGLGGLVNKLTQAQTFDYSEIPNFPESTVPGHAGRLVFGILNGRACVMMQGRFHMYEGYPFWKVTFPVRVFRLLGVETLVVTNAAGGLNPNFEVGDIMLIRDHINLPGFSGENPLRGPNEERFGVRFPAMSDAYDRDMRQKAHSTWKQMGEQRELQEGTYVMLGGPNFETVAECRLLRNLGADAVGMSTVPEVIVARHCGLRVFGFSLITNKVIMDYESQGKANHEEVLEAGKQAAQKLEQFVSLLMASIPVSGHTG
The IC50 is the concentration at which inhibition is half-maximal. `CC(C)(CCS)CCn1cnc2c(=S)[nH]c(N)nc21` [2-Amino-9-(5-mercapto-3,3-dimethyl-pentyl)-1,9-dihydro-purine-6-thione] displayed an IC50 of 95 µM.
The same measure, in the same setting: for `CC(C)(CCC#N)CCn1cnc2c(=O)[nH]c(N)nc21` [6-(2-Amino-6-oxo-1,6-dihydro-purin-9-yl)-4,4-dimethyl-hexanenitrile] the value was > 300 µM.
The same measure, in the same setting: for `CC(C)(CCC(N)=O)CCn1cnc2c(=O)[nH]c(N)nc21` [6-(2-Amino-6-oxo-1,6-dihydro-purin-9-yl)-4,4-dimethyl-hexanoic acid amide] the value was > 300 µM; for `CC(C)(CCn1cnc2c(=O)[nH]c(N)nc21)CCS(N)(=O)=O` [5-(2-Amino-6-oxo-1,6-dihydro-purin-9-yl)-3,3-dimethyl-pentane-1-sulfonic acid amide], > 300 µM; for `CC(C)(CCC(=O)O)CCn1cnc2c(=O)[nH]c(N)nc21` [6-(2-Amino-6-oxo-1,6-dihydro-purin-9-yl)-4,4-dimethyl-hexanoic acid], 290 µM.
The same measure, in the same setting: for `CC(C)(CCn1cnc2c(=O)[nH]c(N)nc21)CCP(=O)(O)O` [[5-(2-Amino-6-oxo-1,6-dihydro-purin-9-yl)-3,3-dimethyl-pentyl]-phosphonic acid] the value was 2 µM; for `CC(C)(CCn1cnc2c(=O)[nH]c(N)nc21)CCS(=O)(=O)O` [5-(2-Amino-6-oxo-1,6-dihydro-purin-9-yl)-3,3-dimethyl-pentane-1-sulfonic acid], 9 µM.

The target is the same in the next assay. Kind of assay: Inhibition of calf spleen PNP (purine nucleoside phosphorylase) in 1 mM phosphate.
`CC(C)(CCS)CCn1cnc2c(=S)[nH]c(N)nc21` [2-Amino-9-(5-mercapto-3,3-dimethyl-pentyl)-1,9-dihydro-purine-6-thione] returned an IC50 of 50 µM.
On the same count and under the same terms, for `CC(C)(CCC#N)CCn1cnc2c(=O)[nH]c(N)nc21` [6-(2-Amino-6-oxo-1,6-dihydro-purin-9-yl)-4,4-dimethyl-hexanenitrile] the value was 260 µM; for `CC(C)(CCC(N)=O)CCn1cnc2c(=O)[nH]c(N)nc21` [6-(2-Amino-6-oxo-1,6-dihydro-purin-9-yl)-4,4-dimethyl-hexanoic acid amide], 200 µM; for `CC(C)(CCn1cnc2c(=O)[nH]c(N)nc21)CCS(N)(=O)=O` [5-(2-Amino-6-oxo-1,6-dihydro-purin-9-yl)-3,3-dimethyl-pentane-1-sulfonic acid amide], 100 µM.
The same measure, in the same setting: for `CC(C)(CCC(=O)O)CCn1cnc2c(=O)[nH]c(N)nc21` [6-(2-Amino-6-oxo-1,6-dihydro-purin-9-yl)-4,4-dimethyl-hexanoic acid] the value was 8 µM.
The same measure, in the same setting: for `CC(C)(CCn1cnc2c(=O)[nH]c(N)nc21)CCP(=O)(O)O` [[5-(2-Amino-6-oxo-1,6-dihydro-purin-9-yl)-3,3-dimethyl-pentyl]-phosphonic acid] the value was 0.044 µM; for `CC(C)(CCn1cnc2c(=O)[nH]c(N)nc21)CCS(=O)(=O)O` [5-(2-Amino-6-oxo-1,6-dihydro-purin-9-yl)-3,3-dimethyl-pentane-1-sulfonic acid], 0.18 µM.

Source of the values: BindingDB's records for doi:10.1021/jm00034a008 (Ciba-Geigy, 1994).
